Assay [1] has as its system Nurr1 complexes in VM precursor cells. The experiment in a line: Immuno-precipitation with anti-Nurr1 antibody in VM precursor cells. Format: cell-based, rat. Conditions: UCN, 24 hours. On the procedure:
For immuno-precipitation, VM precursor cells were treated with UCN for 24 hours and then harvested with M-PER® Mammalian Protein Extraction Reagent (Pierce, Rockford, Ill.) containing 1 mM PMSF, 10 μg/mL aprotinin, 10 μg/mL leupeptin, and 5 μg/mL pepstatin A. The cytosolic lysates (250 μg of protein) were incubated with a rabbit anti-Nurr1 antibody (Santa Cruz Biotechnology) with gentle rocking overnight at 4° C. PureProteome™ protein G magnetic beads (Merck Millipore, Billerica, Mass.) were added (15 μL of suspension) and rotated for 3 h at 4° C. After washing the beads with ice-cold immuno-precipitation buffer (20 mM Tris, pH 7.5, 150 mM NaCl, 1 mM EDTA, 1 mM EGTA, 1% Triton X-100, 2.5 mM sodium pyrophosphate, 1 mM β-glycerolphosphate, 1 mM Na3VO4, 1 μg/mL leupeptin, 1 mM PMSF), immuno-precipitated proteins were eluted in sample buffer, and subjected to Western blot analyses with anti-MeCP2, -CoREST, -HDAC1, -Nurr1, -Foxa2, or -Pitx3 antibodies.

In a further assay the test system is midbrain explants. As to the kind of experiment: Midbrain explant cultures, TH+ cell numbers. The format is cell-based, rat. The conditions noted are these: UCN, 3 days. On the procedure: Midbrain explants were dissected from E13.5 embryos by the method known by a person skilled in the art, for example as the protocol described by Baizabal and Covarrubias (2009) and performed with some modifications.
The dorsal midline of the explants was cut and the tissue was placed on porous (0.4 μm) transparent membrane inserts (25-mm in diameter, Nunc, Roskilde, Denmark) with the ventricular surface facing up. Inserts were then placed into six-well culture plates. Each well contained 1.5 mL of MEM medium supplemented with 10% FBS, 100 U/mL penicillin, and 100 μg/mL streptomycin. Explants were incubated at 37° C. with 5% CO2 for 4 hours, after which the explants were incubated in a serum-free DMEM/F12/N2 medium with or without UCN for 3 days. Midbrain explants were then fixed with 4% paraformaldehyde and immuno-histochemical analysis was performed.

The subject of assay [2] is Nurr1-transduced cortical NPCs. The experiment in a line: Real-time RT-PCR of DA phenotype genes in Nurr1-transduced cortical NPCs. Format: cell-based, rat. The conditions noted are these: 0.5 μM UCN, 3 days. On the procedure: TH promoter assay or lenti-virial transductions were carried out at 60%˜70% cell confluences (usually for 3 days) as described below. Cell differentiation was induced for 3 to 5 days by switching to mitogens-free DMEM/F12/N2 medium in the presence of 0.5 μM UCN. Differentiation medium was changed every other day.
For lenti-viral transduction, E13 cortical NPCs were incubated with lenti-viruses (25 multiplicity of infection) expressing Nurr1 or GFP containing poly-brene (hexadimethrine bromide, 1 μg/mL, Sigma-Aldrich) for 24 hours. After 1 day of further cell expansion in the presence of the mitogens, cells were induced to differentiate.
Total RNA was extracted from VM tissues or cultured VM precursors with TRIzol® reagent (Invitrogen). One-step real-time RT-PCR analysis was performed to determine the expression of genes (Power SYBR® Green RNA-to-CT™ 1-step kit, Applied Biosystems, Foster City, Calif.). Threshold cycle (CO value for each test gene was normalized to the Ct value for the β-actin control from the same RNA preparations. The ratio of transcription of each gene was calculated as 2^−(ΔCt), where ΔCt is the difference Cr (test gene)−Ct (β-actin). The primers used herein are listed in Table 1.
On the technique in general: Quantitative PCR measures a nucleic acid by following its amplification.

Assay [3] deals with human DA neuroblastoma SH-SY5Y cells. As to the kind of experiment: Western blot of TH protein in SH-SY5Y cells. Format: cell-based. The conditions noted are these: UCN vs control medium. On the procedure: Human DA neuroblastoma SH-SY5Y cells were grown in Minimal Essential Medium (MEM)/F12 medium containing 10% FBS, 2 mM L-glutamine, 100 μM nonessential amino acids, 100 U/mL penicillin, and 100 μg/mL streptomycin. Cells were incubated at 37° C. under saturating humidity in 5% CO2/95% air.
(§1) For Western blot analysis, VM precursor cells were lysed in M-PER® Mammalian Protein Extraction Reagent (Pierce). Protein concentration was determined by Bradford assay (Bio-Rad, Hercules, Calif.). 30˜50 μg of protein sample was separated on 10˜12% sodium dodecyl sulphate-polyacrylamide gel (SDS-PAGE) and transferred to immobilon polyvinylidene difluoride (PVDF) membranes (Merck Millipore). The membranes were incubated in Tris-buffered saline (TBST, 0.1 M Tris/HCl, pH 7.4, 0.9% NaCl, 0.1% Tween 20) supplemented with 5% non-fat dry milk for 1 h to block nonspecific binding. […] The antigen-antibody complex was detected by using an ECL chemi-luminescence detection system (PerkinElmer, Boston, Mass.). The intensity of the bands was quantified with a GS-800 calibrated densitometer (Bio-Rad), and calculated as the optical density X area of bands.
For orientation: Immunoblotting shows a protein as a band on a membrane.

Assay [4] relates to acetylated histone H3 (Ac-H3). As to the kind of experiment: Histone H3 acetylation (Western blot, immuno-staining) in VM precursor cultures. The format is cell-based, rat. On the procedure: For immuno-cytochemistry, cells were fixed with 4% paraformaldehyde followed by blocking with PBS containing 0.4% Triton X-100, 3% normal goat serum and 2% bovine serum albumin (BSA) for 1 h at room temperature. After blocking, cells were incubated overnight at room temperature with primary antibodies. Primary antibodies were rabbit anti-UCN (1:200), mouse anti-TH (1:2000) (both from Sigma-Aldrich), goat anti-CRHR1 (1:100), rabbit anti-CRHR2 (1:250), rat anti-dopamine transporter (DAT, 1:200), chicken anti-MAP2 (1:5000) (all from Abcam, Cambridge, Mass.), rabbit anti-Nurr1 (1:100, Santa Cruz Biotechnology), mouse anti-Nurr1 (1:100, R&D Systems, Minneapolis, Minn.), rabbit anti-TH (1:1000), mouse anti-NeuN (1:200) (both from Chemicon, Temecula, Calif.), rabbit anti-acetyl-histone H3 (1:1000, Upstate Biotechnology, Lake Placid, N.Y.), rabbit anti-Foxa2 (1:500, Cell Signaling Technology), and rabbit anti-Pitx3 (1:100, Invitrogen).
as §1

Take Urocortin [UCN]: in assay [1], the “amount of Foxa2 that precipitates with Nurr1” value is reported as “markedly enhanced”; the “interaction between Pitx3 and Nurr1 proteins” value was “not significantly altered”. Besides, the “number of TH+ cells in midbrain explants” value in the assay with midbrain explants was “increases”. In assay [2], the DAT gene expression result is reported as “increased gene expression”, the TH gene expression result is reported as “increased gene expression” and the VMAT2 gene expression result is “increased gene expression”. The TH protein levels entry in assay [3] is on record as “induced the increases”. Further, the “Ac-H3-immuno-reactivity in non- or Nurr1-expressing cells” value in assay [4] (1 μM UCN, 1 hour) was “increased”. Further, the “levels of Ac-H3 (Western blot)” value in assay [4] (1 μM UCN, within minutes) is reported as “significantly increases”. Also, the “duration of histone H3 acetylation” value in assay [4] (single application of UCN) was “at least 48 hours”.

Values taken from patent publication US20160355782A1, “METHOD FOR ENHANCING DIFFERENTIATION OF DOPAMINERGIC NEURONS” (Buddhist Tzu Chi Medical Foundation, priority 2015, published 2016).
